Measured values reported in patent publication US11825844B2, “Method for controlling Fusarium oxysporum f. sp. cubense tropical race 4” (GUANGXI UNIVERSITY, priority 2021, dated 2023).

Legend:
[1] = system: Brazilian banana seedlings; assay: Effect on the growth of Brazilian banana seedlings in treated Gauze's Medium #1; type: in vivo; settings: 3 mM in Gauze's Medium #1; 6 Brazilian banana seedlings per treatment
Method: XcA was dissolved in ethanol. In order to investigate the effect of XcA on the growth of Brazilian banana, 3 mM XcA was added to Gauze's Medium #1. A volume of ethanol (CK) equal to the compound concentration was added to the control. A negative control was set up, and 200 μM 8-hydroxyquinoline (8HQ) was added to the Gauze's Medium #1. Then Brazilian banana seedlings were planted in a culture plate containing the above-mentioned treated medium. Each treatment had 6 replicates (6 Brazilian banana seedlings). The culture plate containing Brazilian banana seedlings was placed in a growth chamber to grow for 10 days to observe the effect on plant growth. Each treatment continued to grow for two months, during which an equal volume of sterile water was supplemented, and the plant height, root weight and seedling weight of each treatment were determined.

spores of Foc TR4 = assay: Effect on spore morphology of Foc TR4 in Gauze's Medium #1, observed under a scanning electron microscope; type: cell-based, Fusarium oxysporum f. sp. cubense tropical race 4
Method: XcA (the compound xerucitrinin A) at a final concentration of 3 mM was added to Gauze's Medium #1, and the filtered spore suspension of Foc was added, with a final spore concentration of 1×10^7 spores/mL. The control treatment was implemented by treating with the same volume of sterile water. The spore suspension was cultured at 28° C. in the dark for 24 h. The spores of Foc were collected and fixed in a 2.5% (v/v) glutaraldehyde solution at 4° C. overnight. The fixed spores were rinsed twice with 0.1 mol/L PBS (pH 7.4), dehydrated gradiently with 30%, 50%, 70%, 80%, 90%, 95%, and 100% ethanol solutions for 20 min, dried and subjected to gold spraying. The spore morphology of Foc TR4 was observed under a scanning electron microscope.

[2] = Chrome azurol S (CAS) agar plate siderophore zone test for Fe-binding; settings: 200 μL of 0.2 mM compound solution in Oxford cup, let stand for 3 h
Method: Chrome azurol S (CAS) agar plate, namely the siderophore screening medium consisting of 1 mL of 20% glucose solution, 3 mL of 10% casein, 100 μL of 1 mmoL/L CaCl2), 2 mL of 1 mmoL/L MgSO4, 100 mL of H2O, and 1.8 g of agar, was heated, and supplemented with 5 mL each of CAS dye solution and phosphate buffered saline (PBS) at 60° C. slowly to obtain a CAS-blue agar medium.
CAS dye solution included: 1 mmol/L CAS, 4 mmol/L hexadecyl trimethyl ammonium bromide, and 0.1 mmol/L FeCl3.
PBS (pH 6.8) included: 2.427 g of Na2HPO4.12H2O, 0.5905 g of NaH2PO4.2H2O, 0.075 g of KH2PO4, 0.250 g of NH4Cl, 0.125 g of NaCl, and 100 mL of H2O. All the above solutions were prepared with deionized water. […]
The Fe-binding ability of xerucitrinin A was detected by using the CAS agar plate. […] The growth of Foc TR4 is inhibited by binding Fe.

SMILES: Cc1c(O)c(C)c2c(c1O)CO[C@]1(C[C@H]3O[C@H](C)[C@@H](C)c4c(C)c(O)c(O)c(c43)O1)[C@H]2C [xerucitrinin A]
- effect on the growth of banana seedlings compared with the control [1]: no adverse effect on the growth of banana seedlings
- spore morphology of Foc (spores of Foc TR4): obvious crenation on the surface of the spores
- germination and growth of the spores of Foc (spores of Foc TR4; 3 mM in Gauze's Medium #1, 28° C. in the dark for 24 h): affect the germination and growth of the spores of Foc
- Fe-binding ability (siderophore zone around the Oxford cup) [2]: a siderophore zone appeared around the Oxford cup
